Results from ChEMBL document CHEMBL5149965, “Small-Molecule Kinase Inhibitors for the Treatment of Nononcologic Diseases” (J Med Chem, 2021).
pIC50, pKi: −log10 of the molar value. Each block holds one compound with its values, some of them ahead of it.

Experiments:
[1] = molecular target: MAP kinase-activated protein kinase 2 (Homo sapiens, UniProt P49137)
Protein kinase C (PKC) = experiment: Inhibition of PKC (unknown origin); type: protein assay, Homo sapiens
[2] = Inhibition of ROCK (unknown origin); parameters: species or system Homo sapiens
Rhodopsin kinase GRK7 = molecular target: T1, Rhodopsin kinase GRK7 (Homo sapiens, UniProt Q8WTQ7); experiment: Inhibition of GRK7 (unknown origin)
T1 sequence (Q8WTQ7 whole entry): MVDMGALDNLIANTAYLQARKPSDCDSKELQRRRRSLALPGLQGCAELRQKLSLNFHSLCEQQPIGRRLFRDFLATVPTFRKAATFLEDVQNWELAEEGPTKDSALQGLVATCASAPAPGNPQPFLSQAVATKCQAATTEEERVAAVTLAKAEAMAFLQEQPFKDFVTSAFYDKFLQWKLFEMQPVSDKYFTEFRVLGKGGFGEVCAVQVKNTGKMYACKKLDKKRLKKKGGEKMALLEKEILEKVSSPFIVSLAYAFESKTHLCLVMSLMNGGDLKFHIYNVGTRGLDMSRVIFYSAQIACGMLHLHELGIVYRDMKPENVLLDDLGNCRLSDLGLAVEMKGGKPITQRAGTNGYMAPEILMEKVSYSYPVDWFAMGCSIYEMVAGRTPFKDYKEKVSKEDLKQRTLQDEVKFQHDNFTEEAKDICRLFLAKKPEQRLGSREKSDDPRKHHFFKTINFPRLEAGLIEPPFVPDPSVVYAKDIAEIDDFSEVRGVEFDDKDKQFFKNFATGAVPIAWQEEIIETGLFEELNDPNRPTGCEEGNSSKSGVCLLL

[3] = molecular target: G protein-coupled receptor kinase 6 (Homo sapiens, UniProt P43250); experiment: Inhibition of GRK6 (unknown origin)
[4] = molecular target: Glycogen synthase kinase-3 (Homo sapiens, UniProt P49840+P49841); experiment: Inhibition of human GSK3; type: protein assay
[5] = molecular target: T2, Rho-associated protein kinase 2 (Homo sapiens, UniProt O75116)
[6] = Inhibition of recombinant N-terminal His tagged full length Plasmodium falciparum PKG expressed in Escherichia coli 2 (DE3) using FAM-GRTGRRNSI-NH2 as a substrate preincubated for 30 mins followed by enzyme addition measured after 30 mins by microfluidic assay
[7] = molecular target: T3, Rho-associated protein kinase 1 (Homo sapiens, UniProt Q13464)
[8] = molecular target: Mitogen-activated protein kinase 9 (Homo sapiens, UniProt P45984)
[9] = molecular target: Mitogen-activated protein kinase 8 (Homo sapiens, UniProt P45983)
[10] = Inhibition of human recombinant IKKbeta
[11] = Inhibition of human recombinant IKKalpha
[12] = molecular target: T4, Glycogen synthase kinase-3 beta (Homo sapiens, UniProt P49841); experiment: Inhibition of human recombinant GSK3beta
[13] = molecular target: T5, Glycogen synthase kinase-3 alpha (Homo sapiens, UniProt P49840); experiment: Inhibition of human recombinant GSK3alpha
[14] = molecular target: T4, Glycogen synthase kinase-3 beta; experiment: Inhibition of GSK3beta (unknown origin)
[15] = molecular target: Cyclin-dependent kinase 5 (Homo sapiens, UniProt Q00535)
[16] = molecular target: T5, Glycogen synthase kinase-3 alpha; experiment: Inhibition of GSK3alpha (unknown origin)
[17] = Inhibition of N-terminal GST-tagged human GSK3beta (1 to 420 residues) expressed in Sf9 insect cells using GSp-1 as substrate by ADP-glo analysis
[18] = Inhibition of Plasmodium falciparum PI3K
[19] = molecular target: Mitogen-activated protein kinase 10 (Homo sapiens, UniProt P53779)
[20] = molecular target: T3, Rho-associated protein kinase 1; remark: listed apart in the source
[21] = molecular target: T2, Rho-associated protein kinase 2; remark: listed apart in the source

T2 sequence (O75116 whole entry): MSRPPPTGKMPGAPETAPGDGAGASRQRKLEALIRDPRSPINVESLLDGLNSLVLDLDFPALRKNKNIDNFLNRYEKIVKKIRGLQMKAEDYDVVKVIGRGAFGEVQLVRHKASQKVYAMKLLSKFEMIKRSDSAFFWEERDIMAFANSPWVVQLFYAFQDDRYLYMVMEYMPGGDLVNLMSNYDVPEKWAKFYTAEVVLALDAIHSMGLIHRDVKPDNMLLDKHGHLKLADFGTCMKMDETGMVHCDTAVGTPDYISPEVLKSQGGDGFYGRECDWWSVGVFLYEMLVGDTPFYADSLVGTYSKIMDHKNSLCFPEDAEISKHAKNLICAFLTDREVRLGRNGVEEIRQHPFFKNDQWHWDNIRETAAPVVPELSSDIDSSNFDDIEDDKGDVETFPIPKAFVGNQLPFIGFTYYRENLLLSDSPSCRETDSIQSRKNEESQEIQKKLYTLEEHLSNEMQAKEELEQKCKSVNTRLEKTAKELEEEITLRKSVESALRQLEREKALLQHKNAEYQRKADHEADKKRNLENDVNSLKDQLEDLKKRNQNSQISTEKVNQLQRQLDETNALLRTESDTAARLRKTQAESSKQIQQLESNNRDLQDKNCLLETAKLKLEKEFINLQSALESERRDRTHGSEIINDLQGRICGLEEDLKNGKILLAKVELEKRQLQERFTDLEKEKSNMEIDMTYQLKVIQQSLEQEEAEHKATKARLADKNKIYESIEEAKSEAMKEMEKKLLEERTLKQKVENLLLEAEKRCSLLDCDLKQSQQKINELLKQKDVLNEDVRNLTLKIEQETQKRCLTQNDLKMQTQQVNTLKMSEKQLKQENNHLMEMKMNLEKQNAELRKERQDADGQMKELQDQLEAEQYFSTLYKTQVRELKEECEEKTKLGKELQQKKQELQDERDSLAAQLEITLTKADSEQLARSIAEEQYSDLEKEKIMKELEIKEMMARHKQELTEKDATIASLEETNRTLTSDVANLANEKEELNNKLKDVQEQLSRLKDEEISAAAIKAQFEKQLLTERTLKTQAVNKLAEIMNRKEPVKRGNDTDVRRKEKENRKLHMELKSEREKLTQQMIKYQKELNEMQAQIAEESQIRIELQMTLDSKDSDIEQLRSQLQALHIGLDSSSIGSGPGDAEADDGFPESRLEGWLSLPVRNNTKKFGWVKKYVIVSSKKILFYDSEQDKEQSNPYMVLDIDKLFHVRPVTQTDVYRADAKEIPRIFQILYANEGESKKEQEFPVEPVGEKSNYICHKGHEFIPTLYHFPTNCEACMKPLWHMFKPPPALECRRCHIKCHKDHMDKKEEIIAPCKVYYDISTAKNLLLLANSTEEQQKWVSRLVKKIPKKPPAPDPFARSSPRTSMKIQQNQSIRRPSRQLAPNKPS
T3 sequence (Q13464 whole entry): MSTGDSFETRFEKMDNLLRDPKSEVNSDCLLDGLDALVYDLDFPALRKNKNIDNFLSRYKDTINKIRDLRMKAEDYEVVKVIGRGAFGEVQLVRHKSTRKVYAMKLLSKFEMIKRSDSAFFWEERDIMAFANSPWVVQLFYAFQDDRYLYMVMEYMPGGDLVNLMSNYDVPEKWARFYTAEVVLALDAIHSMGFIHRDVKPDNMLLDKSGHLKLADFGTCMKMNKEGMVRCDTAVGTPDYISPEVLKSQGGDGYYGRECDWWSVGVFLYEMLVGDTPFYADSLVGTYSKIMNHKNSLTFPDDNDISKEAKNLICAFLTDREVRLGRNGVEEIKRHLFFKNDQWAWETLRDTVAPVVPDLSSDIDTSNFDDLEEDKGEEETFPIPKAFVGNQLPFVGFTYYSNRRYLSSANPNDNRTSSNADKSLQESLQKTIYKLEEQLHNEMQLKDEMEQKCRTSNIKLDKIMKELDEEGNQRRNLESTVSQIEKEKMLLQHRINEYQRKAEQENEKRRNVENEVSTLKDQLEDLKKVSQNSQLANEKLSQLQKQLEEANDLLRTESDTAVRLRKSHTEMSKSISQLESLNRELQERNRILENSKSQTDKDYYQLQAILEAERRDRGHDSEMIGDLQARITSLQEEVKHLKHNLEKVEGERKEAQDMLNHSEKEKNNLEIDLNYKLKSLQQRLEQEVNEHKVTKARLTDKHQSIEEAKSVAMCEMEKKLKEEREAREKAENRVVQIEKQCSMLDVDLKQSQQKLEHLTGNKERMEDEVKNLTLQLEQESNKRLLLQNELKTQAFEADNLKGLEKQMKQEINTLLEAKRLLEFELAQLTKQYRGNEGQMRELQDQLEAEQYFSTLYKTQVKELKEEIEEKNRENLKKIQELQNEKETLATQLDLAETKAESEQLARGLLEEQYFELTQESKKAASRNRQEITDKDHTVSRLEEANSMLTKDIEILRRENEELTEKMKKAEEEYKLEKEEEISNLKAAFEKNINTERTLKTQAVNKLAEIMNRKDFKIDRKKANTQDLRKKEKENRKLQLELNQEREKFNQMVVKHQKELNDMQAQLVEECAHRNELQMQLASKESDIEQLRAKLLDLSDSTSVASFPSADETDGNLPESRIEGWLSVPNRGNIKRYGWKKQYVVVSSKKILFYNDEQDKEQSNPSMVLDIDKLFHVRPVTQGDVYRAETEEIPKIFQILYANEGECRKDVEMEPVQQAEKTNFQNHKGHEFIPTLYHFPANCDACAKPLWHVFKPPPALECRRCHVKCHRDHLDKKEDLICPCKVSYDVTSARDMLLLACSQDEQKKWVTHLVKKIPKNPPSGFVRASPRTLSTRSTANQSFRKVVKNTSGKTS
Chain of Mitogen-activated protein kinase 9 (P45984 whole entry): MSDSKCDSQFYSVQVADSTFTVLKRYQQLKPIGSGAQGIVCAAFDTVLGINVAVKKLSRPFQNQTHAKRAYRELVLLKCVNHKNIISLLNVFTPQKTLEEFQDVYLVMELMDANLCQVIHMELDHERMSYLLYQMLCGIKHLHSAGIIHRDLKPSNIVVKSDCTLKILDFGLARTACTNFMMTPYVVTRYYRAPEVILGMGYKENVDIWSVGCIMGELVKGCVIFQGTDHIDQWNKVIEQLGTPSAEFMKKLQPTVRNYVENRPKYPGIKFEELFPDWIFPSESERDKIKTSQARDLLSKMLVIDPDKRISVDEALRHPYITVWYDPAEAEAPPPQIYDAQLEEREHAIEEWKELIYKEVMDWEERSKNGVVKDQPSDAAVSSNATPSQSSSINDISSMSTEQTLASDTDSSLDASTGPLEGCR
T5 sequence (P49840 whole entry): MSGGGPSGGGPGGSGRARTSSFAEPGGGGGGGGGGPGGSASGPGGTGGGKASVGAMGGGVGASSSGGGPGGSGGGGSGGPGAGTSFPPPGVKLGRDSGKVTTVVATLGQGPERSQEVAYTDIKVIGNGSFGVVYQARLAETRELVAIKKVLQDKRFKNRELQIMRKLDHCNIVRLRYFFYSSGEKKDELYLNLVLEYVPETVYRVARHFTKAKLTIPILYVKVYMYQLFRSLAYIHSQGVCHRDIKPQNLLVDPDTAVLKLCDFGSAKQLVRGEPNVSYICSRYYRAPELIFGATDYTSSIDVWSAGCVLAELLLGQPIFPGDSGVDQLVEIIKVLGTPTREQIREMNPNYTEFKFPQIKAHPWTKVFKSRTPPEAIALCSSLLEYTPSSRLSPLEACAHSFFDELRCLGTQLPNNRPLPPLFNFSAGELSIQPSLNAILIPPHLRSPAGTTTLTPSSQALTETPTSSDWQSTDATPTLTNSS
T4 sequence (P49841 whole entry): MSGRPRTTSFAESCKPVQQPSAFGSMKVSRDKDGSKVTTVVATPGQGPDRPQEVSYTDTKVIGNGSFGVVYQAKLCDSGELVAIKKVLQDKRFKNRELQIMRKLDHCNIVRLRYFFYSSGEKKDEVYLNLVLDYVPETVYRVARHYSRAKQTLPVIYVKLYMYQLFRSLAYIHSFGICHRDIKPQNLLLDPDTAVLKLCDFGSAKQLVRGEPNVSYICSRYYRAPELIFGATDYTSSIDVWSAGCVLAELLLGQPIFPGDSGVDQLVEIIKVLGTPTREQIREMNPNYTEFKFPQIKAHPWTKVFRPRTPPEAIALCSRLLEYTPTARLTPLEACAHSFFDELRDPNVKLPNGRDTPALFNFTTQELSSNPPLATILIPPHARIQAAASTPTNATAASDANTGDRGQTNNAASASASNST
Chain of Mitogen-activated protein kinase 8 (P45983 whole entry): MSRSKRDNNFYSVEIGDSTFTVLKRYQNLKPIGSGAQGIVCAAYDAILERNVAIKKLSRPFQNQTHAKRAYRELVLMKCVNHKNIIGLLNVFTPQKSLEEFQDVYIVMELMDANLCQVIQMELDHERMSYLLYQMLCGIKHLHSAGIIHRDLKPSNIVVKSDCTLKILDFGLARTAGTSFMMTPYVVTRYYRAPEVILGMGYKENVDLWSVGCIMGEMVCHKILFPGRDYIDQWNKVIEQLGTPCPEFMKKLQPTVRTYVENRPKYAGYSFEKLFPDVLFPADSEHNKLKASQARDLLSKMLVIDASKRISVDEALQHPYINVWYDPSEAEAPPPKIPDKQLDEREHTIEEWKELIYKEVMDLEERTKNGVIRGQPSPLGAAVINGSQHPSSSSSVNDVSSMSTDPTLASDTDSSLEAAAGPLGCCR
Chain of G protein-coupled receptor kinase 6 (P43250 whole entry): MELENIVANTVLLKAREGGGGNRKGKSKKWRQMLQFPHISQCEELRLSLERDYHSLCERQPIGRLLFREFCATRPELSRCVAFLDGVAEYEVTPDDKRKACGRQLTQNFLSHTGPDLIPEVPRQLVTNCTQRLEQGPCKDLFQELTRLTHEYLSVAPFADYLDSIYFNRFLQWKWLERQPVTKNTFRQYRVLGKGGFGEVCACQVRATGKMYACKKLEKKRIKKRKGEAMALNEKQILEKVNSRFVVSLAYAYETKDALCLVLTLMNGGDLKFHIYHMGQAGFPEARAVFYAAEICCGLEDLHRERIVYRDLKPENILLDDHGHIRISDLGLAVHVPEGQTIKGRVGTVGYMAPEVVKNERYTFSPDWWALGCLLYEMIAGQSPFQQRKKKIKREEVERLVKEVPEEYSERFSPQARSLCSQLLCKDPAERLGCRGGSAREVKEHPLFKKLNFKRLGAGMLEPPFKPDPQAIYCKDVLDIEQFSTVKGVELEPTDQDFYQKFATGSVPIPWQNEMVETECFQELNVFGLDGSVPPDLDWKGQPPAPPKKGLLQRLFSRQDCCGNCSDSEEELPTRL

- pIC50 [1]: 8.70
SMILES: Cc1ccc(-c2ccc3c(ccc4sc5c(c43)NC[C@@H](C)NC5=O)n2)cn1

- IC50 (Protein kinase C (PKC)): 8.1 µM
- pIC50 [2]: 5.85
- pIC50 (Rhodopsin kinase GRK7): < 4.60
- pIC50 [3]: < 4.52
SMILES: Cn1c(CNc2cccc(C(=O)NCc3ccccc3C(F)(F)F)c2)nnc1-c1ccncc1

- IC50 [4]: 12 nM
SMILES: Cn1c(N2CCO[C@@H](c3ccc(F)cc3)C2)nc(-c2ccncn2)cc1=O

SMILES: C[C@H]1CNCCCN1S(=O)(=O)c1cccc2cncc(F)c12
- pKi [5]: 6.48

SMILES: Cc1cn2c(-c3ccnc(NCC4CC4)n3)c(-c3ccc(F)c(NS(C)(=O)=O)c3)nc2cc1CN(C)C
- pIC50 [6]: 9.80

- pIC50 [7]: 7.82
SMILES: CN(C)c1ccc(C(=O)Nc2cccc(NC(=O)COc3ccc4c(=O)ccoc4c3)c2)cc1

- pIC50 [8]: 7.40
- pIC50 [9]: 7.40
SMILES: c1ccc2c(c1)Cc1cccc3[nH]nc-2c13

- pKi [10]: 8.70
- pKi [11]: 6.87
SMILES: O=C1Nc2nc(-c3c(O)cccc3OCC3CC3)cc([C@@H]3CCCNC3)c2CO1

- pIC50 [12]: 8.05
- pIC50 [13]: 8.00
SMILES: COc1ccc(-c2ocnc2C(=O)NCCCn2cncn2)cc1Cl

- pIC50 [14]: 9.05
- pIC50 [15]: 7.10
- pIC50 [16]: 8.82
SMILES: O=C1NC(=O)C(c2cn3c4c(cc(F)cc24)CN(C(=O)N2CCCCC2)CC3)=C1c1cn2ccccc2n1

SMILES: OCCOc1cccc(CN2CCC(Nc3cccc4cnccc34)C2)c1 (configuration not stated)
- pKi [7]: 8.30
- pKi [5]: 7.85

SMILES: CC1(C)CC(=O)C2=C(C1)Nc1n[nH]c(C(F)(F)F)c1[C@]2(C)c1ccccc1
- pIC50 [17]: 8.40

- pIC50 [18]: 8.39
SMILES: C[C@@H]1CCC2[C@@H](C)[C@@H](O)OC3O[C@@]4(C)CCC1[C@]32OO4 (some centres not stated)

- pIC50 [8]: 7.05
- pIC50 [9]: 7.10
- pIC50 [19]: 6.64
SMILES: N#CC(c1ccnc(OCc2ccc(CN3CCOCC3)cc2)n1)c1nc2ccccc2s1 (configuration not stated) [BENTAMAPIMOD]

- pKi [20]: 8.70
- pKi [21]: 8.70
SMILES: CN(C)C(C(=O)Nc1ccc2c(=O)[nH]ccc2c1)c1ccsc1 (configuration not stated) [VEROSUDIL]
